Laboratory results reported in patent publication US20110071146A1, “17BetaHSD Type 5 Inhibitor” (ASTELLAS PHARMA INC., priority 2006, published 2011).
Where two headings read alike, the source gives them in different places.

What was measured:
human 17βHSD type 5 = molecular target: T1, human 17βHSD type 5 (Homo sapiens, UniProt P42330); experiment: Measurement of enzyme activity of human 17βHSD type 5 (testosterone production from androstenedione, DELFIA); type: biochemical; settings: for IC50: purified human 17βHSD type 5, androstenedione 300 nM, NADPH 200 μM, pH 6.0, room temperature 2 hours
T1 construct: A full-length cDNA encoding human 17βHSD type 5 used in the pharmacological test; made in house; host or cells: Escherichia coli BL21
T1 sequence (P42330 1-323): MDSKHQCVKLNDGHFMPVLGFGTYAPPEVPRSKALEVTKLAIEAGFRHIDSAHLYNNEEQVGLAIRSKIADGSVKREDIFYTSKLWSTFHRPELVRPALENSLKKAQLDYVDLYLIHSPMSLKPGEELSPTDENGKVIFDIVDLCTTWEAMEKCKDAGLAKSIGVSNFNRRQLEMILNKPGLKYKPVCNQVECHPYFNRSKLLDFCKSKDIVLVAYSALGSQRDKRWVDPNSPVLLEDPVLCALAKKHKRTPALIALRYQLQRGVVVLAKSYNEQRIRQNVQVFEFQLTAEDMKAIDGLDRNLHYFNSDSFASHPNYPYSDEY
Excerpt: (§1) An excellent selective inhibitory activity against human 17βHSD type 5 of the compounds of the present invention was confirmed by a test method described below. Further, the test may be performed by referring to the details of test procedure described in Maniatis, T. et al., Molecular Cloning—A Laboratory Manual Cold Spring Harbor Laboratory, NY and the like (1982). In addition, a gene encoding human 17βHSD type5 and type3 described in 1 and 2 below, and human 17βHSD type5 and type3 may be obtained by the method described in Mol. Endocrinol, 1971-1984, 11(13) (1997).
A full-length cDNA encoding human 17βHSD type 5 used in the pharmacological test of the present invention was obtained by the PCR method using a cDNA derived from a human lung cancer-derived cell line, A549 cells as a template. The nucleotide sequence of the obtained cDNA was analyzed by the dideoxyterminator method, and the clone matched with the known human 17βHSD type 5 sequence (GenBank accession No. NM_003739) was selected. Escherichia coli BL21 was transformed with a plasmid containing the cDNA, cultured on a large scale, and the proteins were purified by using GSTrapFF column (Amersham) and PreScissionProtease (Amersham). The purification was performed in accordance with the instructions attached to the GSTrapFF column.
(§2) Enzyme activity was measured referring to Trevor M. Penning, et al., Biochem. J., 351, 67-77, (2000). Specifically, using a 100 mM potassium phosphate buffer (pH 6.0), (1) the enzyme purified in above 1 at a final concentration of 10 μg/mL, (2) androstenedione at a final concentration of 300 nM, (3) NADPH at a final concentration of 200 μM and (4) a test substance at a final concentration of 3 μM were mixed to react at room temperature for 2 hours, and then the amount of testosterone produced was measured using DELFIA (registered trademark) Testosterone Reagents R050-201 (PerkinElmer). The measurement was performed in accordance with the attached instructions. The amount of reduction of testosterone production in the presence of the compound was obtained as a relative value with respect to the amount of testosterone in the absence of the enzyme set at 0% and the amount of testosterone produced in the absence of the compound set at 100%. Then, IC50 values were calculated by the Logistic regression method.

[1] = Measurement of concentrations of human 17βHSD type 5 inhibitor compounds in mouse tissues (plasma, prostate) after oral administration; type: in vivo; settings: male ICR mice, 2 hours after administration
Method: The concentrations in plasma and in prostate were measured after oral administration of a test substance. Male 8 to 15-week old ICR mice were used, and a solution or suspension obtained by adding 1 N NaOH solution and water in an equivalent amount to a test substance and stirring was used as an administration solution. The administration solution was administered orally once to mice, and after 2 hours, blood and a prostate were collected under ether anesthesia. The prostate was frozen and stored at −80° C. until measurement. The blood was centrifuged (3000 rpm, 15 min, 4° C.) after the addition of a minor amount of heparin, and the upper layer was collected as plasma and frozen and stored at −80° C. until measurement. 0.1 mL of the plasma was subjected to protein degeneration with 0.1 mL of acetonitrile and then centrifuged (15000 rpm, 7 min, 4° C.) to remove proteins and the supernatant thus obtained was used as an HPLC sample. The prostate was homogenized in a phosphate buffer solution (200 mM, pH 7.4, 0.5 mL), and then the whole volume was added to 3 mL of t-butyl methyl ether to perform extraction. The solvent was evaporated in a stream of nitrogen (15 min, 45° C.). The residue was resuspended in a Tris buffer solution (12.5 mM, pH 7.4, 0.3 mL) containing 2% BSA, and an equal volume of acetonitrile (0.3 mL) was added. Protein was removed as in the case of plasma and the supernatant was used as an HPLC measurement sample. Measurement was performed by an ordinary method using liquid chromatography (HPLC).
Column: STR ODS-II (registered trademark), particle size: 5 μm, inner diameter: 4.6 mm, length: 150 mm, joint type: Waters Mobile phase: 20 mM ammonium acetate:acetonitrile=7:3 or 17 mM ammonium acetate:acetonitrile=6:4 Flow rate: 1 mL/min Column temperature: 40° C. Injection volume: 50 μL

human 17βHSD type 3 = molecular target: T2, human 17βHSD type 3 (Homo sapiens, UniProt P37058); experiment: Measurement of enzyme activity of human 17βHSD type 3 (testosterone production from androstenedione, DELFIA); type: biochemical; settings: human 17βHSD type 3 (293 cell supernatant as enzyme source)
T2 construct: A full-length cDNA encoding human 17βHSD type 3 used in the pharmacological test; made in house; host or cells: human fetus kidney-derived 293 cells (transfected; supernatant of disrupted cells, not purified)
T2 sequence (P37058 1-310): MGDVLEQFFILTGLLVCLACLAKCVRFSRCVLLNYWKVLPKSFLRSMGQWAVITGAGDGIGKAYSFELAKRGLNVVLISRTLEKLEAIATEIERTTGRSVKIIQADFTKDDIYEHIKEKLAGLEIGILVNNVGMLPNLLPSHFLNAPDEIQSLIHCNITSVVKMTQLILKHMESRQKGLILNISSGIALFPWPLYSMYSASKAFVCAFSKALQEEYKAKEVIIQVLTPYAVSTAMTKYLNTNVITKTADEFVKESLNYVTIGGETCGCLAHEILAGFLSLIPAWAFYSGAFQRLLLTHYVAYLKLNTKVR
Excerpt: as §1
A full-length cDNA encoding human 17βHSD type 3 used in the pharmacological test of the present invention was obtained by the PCR method using a cDNA derived from human testis as a template. The nucleotide sequence of the obtained cDNA was analyzed by the dideoxyterminator method, and the clone matched with the known human 17βHSD type 3 sequence (GenBank accession No. BC034281) was selected. Subsequently, a human fetus kidney-derived cell line, 293 cells was transformed with a plasmid containing the cDNA, and the cells were collected 24 hours later. The collected cells were then disrupted in a phosphate buffer solution containing 5% glycerol (500 μL per 100 mm-dish of a phosphate buffer solution (pH 7.4, 200 mM) containing 5% glycerol) and centrifuged (16000 rpm, 5 min, 4° C.), and the supernatant was used as an enzyme source.
as §2

5α-reductase = settings: patients with BPH; cited from earlier work
[2] = plasma, oral single dose 100 mg/kg, read-out: Conc (plasma)
[3] = plasma, oral single dose 300 mg/kg, read-out: Conc (plasma)
[4] = prostate, oral single dose 100 mg/kg, read-out: Conc (prostate)
[5] = prostate, oral single dose 300 mg/kg, read-out: Conc (prostate)

Compound	IC50 (human 17βHSD type 5) [nM]	concentration at 2 h [1, 2] [µM]	concentration at 2 h [1, 4] [µM]	IC50 (human 17βHSD type 3) [nM]	also measured
O=C(O)c1c(Cl)n(Cc2ccc(Cl)cc2)c2ccccc12 [(1), reference compound]	> 10000				
O=C(O)c1c(Cl)n(Cc2ccc(Cl)cc2Cl)c2ccccc12 [(2), reference compound]	> 10000				17βHSD type 5 inhibitory activity (in words) (human 17βHSD type 5; summary of Table 51): scarcely exhibited 17βHSD type 5 inhibitory activity
O=C(O)c1cn(S(=O)(=O)c2ccccc2)c2ccccc12 [Example 1, 1-(phenylsulfonyl)-1H-indole-3-carboxylic acid]		57.4	13.3		concentration at 2 h ([1]; plasma, oral single dose 30 mg/kg, read-out: Conc (plasma)): 17 µM; concentration at 2 h [1, 3]: 145 µM; concentration at 2 h ([1]; prostate, oral single dose 30 mg/kg, read-out: Conc (prostate)): 5.3 µM; concentration at 2 h [1, 5]: 47.4 µM
COc1ccc(S(=O)(=O)n2cc(C(=O)O)c3ccccc32)cc1 [Example 133, 1-[(4-methoxyphenyl)sulfonyl]-1H-indole-3-carboxylic acid]	3100			> 10000	
Cc1ccc(S(=O)(=O)n2cc(C(=O)O)c3ccccc32)cc1 [Example 138]	330			> 10000	
O=C(O)c1cn(S(=O)(=O)c2ccc(Br)cc2)c2ccccc12 [Example 144]	90	38.5	7.2	> 10000	concentration at 2 h [1, 3]: 79.1 µM; concentration at 2 h [1, 5]: 24.8 µM
COc1cccc2c1c(C(=O)O)cn2S(=O)(=O)c1ccccc1 [Example 155]	5500	88.4	23	> 10000	
Cc1ccc2c(c1)c(C(=O)O)cn2S(=O)(=O)c1ccccc1 [Example 163]	220	88.8	19.1	> 10000	
CCc1cccc2c(C(=O)O)cn(S(=O)(=O)c3ccccc3)c12 [Example 168]	85			> 10000	
O=C(O)c1cn(S(=O)(=O)c2ccccc2)c2ccc(F)cc12 [Example 175]	120	83.8	8.6	8900	
O=C(O)c1cn(S(=O)(=O)c2ccccc2)c2c(F)cccc12 [Example 187]	2200	69.7	12.2	> 10000	
O=C(O)c1cn(S(=O)(=O)c2ccccc2)c2ccc(Cl)cc12 [Example 190]	690			> 10000	concentration at 2 h [1, 3]: 226 µM; concentration at 2 h [1, 5]: 37.4 µM
O=C(O)c1cn(S(=O)(=O)c2ccccc2)c2c(Cl)cccc12 [Example 191]	300			> 10000	
O=C(O)c1cn(S(=O)(=O)c2ccc(Br)cc2)c2c(Cl)cccc12 [Example 192]	69	57.3	9.4	> 10000	concentration at 2 h [1, 3]: 126 µM; concentration at 2 h [1, 5]: 24.9 µM
CC(C)c1ccc(S(=O)(=O)n2cc(C(=O)O)c3cccc(Cl)c32)cc1 [Example 193]	130			> 10000	
Cc1cc(Br)ccc1S(=O)(=O)n1cc(C(=O)O)c2cccc(Cl)c21 [Example 194]	190			6200	
O=C(O)c1cn(S(=O)(=O)c2ccc(Br)cc2)c2cc3c(cc12)OCO3 [Example 203]	2000			> 10000	
O=C(O)c1cn(S(=O)(=O)c2ccc(Br)cc2)c2c1CCCC2 [Example 208]	2200			> 10000	
CC(C)(C)NC(=O)[C@H]1CC[C@H]2[C@@H]3CC[C@H]4NC(=O)C=C[C@]4(C)[C@H]3CC[C@]12C [finasteride]					concentration of DHT in the prostate after administration, relative to the concentration before the administration (5α-reductase): about 20%; increase of the concentration of testosterone in the prostate (5α-reductase): 4 fold
